According to patent publication US7935680B2, “Methods for modulating the axonal growth of central nervous system neurons” (Children's Medical Center Corporation, priority 1997, dated 2011):
Entries after “also recorded” stand apart in the source; their conditions may differ.

B1: ADA: exogenous adenosine deaminase enzyme (protein, UniProt P00813 2-363, looked up)
Adenosine deaminase: AQTPAFDKPKVELHVHLDGSIKPETILYYGRRRGIALPANTAEGLLNVIGMDKPLTLPDFLAKFDYYMPAIAGCREAIKRIAYEFVEMKAKEGVVYVEVRYSPHLLANSKVEPIPWNQAEGDLTPDEVVALVGQGLQEGERDFGVKARSILCCMRHQPNWSPKVVELCKKYQQQTVVAIDLAGDETIPGSSLLPGHVQAYQEAVKSGIHRTVHAGEVGSAEVVKEAVDILKTERLGHGYHTLEDQALYNRLRQENMHFEICPWSSYLTGAWKPDTEHAVIRLKNDQANYSLNTDDPLIFKSTLDTDYQMTKRDMGFTEEEFKRLNINAAKSSFLPEDEKRELLDLLYKAYGMPPSASAGQNL

Experiments:
Assay type in all cases: cell-based
[1] = tested on: goldfish retinal ganglion cells; test: Axonal outgrowth from dissociated goldfish retinal ganglion cell cultures; conditions: for EC50: goldfish RGCs, 6 days, estimated from dose-response curves; for Emax: read-out: maximal response relative to the level induced by AF-1; for outgrowth at higher concentrations: concentrations above those giving the maximal response; for axonal outgrowth activity: tested at concentrations between 1-100 μM; for dependence of outgrowth on cell density: fixed concentration (100 μM), 3-4-fold range of cell densities; for restoration of AF-1-induced growth in the presence of 10 μM 6-TG: inosine 100 μM
Procedure: Axogenesis factor-1 was obtained essentially as described in Schwalb et al., 1995, and Schwalb et al., Neuroscience, 72: 901-910, 1996, the contents of which are incorporated herein by reference). Optic nerves were dissected, cut into fragments 1 mm in length, and incubated in a ratio of 6 nerves in 3 ml of either L-15 media (Gibco BRL) or phosphate-buffered saline (Gibco BRL). After 3-4 hours, nerve fragments were removed by filtering through a 0.22 μm pore low protein-binding filter (Gelman). A low molecular weight fraction of the conditioned media was prepared by ultrafiltration, first with a molecular weight cut-off of 3 kDa (Amicon Centriprep-3), then with a cut-off of 1 kDa (Filtron). The filtrate was used as a positive control at 20-30% final concentration. […] Goldfish (Comet Variety, Mt. Parnell Fisheries, Mt. Parnell Pa.), 6-10 cm in length, were dark-adapted and their retinas dissected. Retinas were incubated with papain (20 μg/ml), activated with cysteine (2.8 mM) for 30 minutes at room temperature, then dissociated by gentle trituration. […] Neuroscience 15: 5514-5625, 1995, the contents of which are incorporated herein by reference). […] Cells were maintained at 21° C. in serum free, defined media containing insulin, selenium, transferrin, bovine serum albumin, catalase, superoxide dismutase, hormones, and vitamins in Eagle's L-15 media as described in Schwalb et al., 1995, the contents of which are incorporated herein by reference). Dissociated cultures of purified rat retinal ganglion cells were prepared by immunopanning as described in Barres et al., Neuron, 1: 791-803, 1988, the contents of which are incorporated herein by reference). In brief, retinas from postnatal day 8 Sparague-Dawley rats were dissociated using papain activated with cysteine. Macrophages were removed by incubation with an anti-rat macrophage antibody (Accurate) followed by immunopanning with an anti-rabbit 1gG antibody. Ganglion cells were isolated by immunopanning with an anti-Thy-1 antibody, then dislodged with trypsin for use in low-density cultures. Rat retinal ganglion cells were maintained at 37° C. in a CO2 incubator using the same medium described above except for the presence of 30 mM bicarbonate. In a typical experiment, samples were plated in quadruplicate in randomized positions of a 24-well plate and the code was concealed to ensure that growth was evaluated in a blinded fashion. Each experiment contained 4 wells of a negative control (media plus supplements only) and 4 wells of a positive control (a standardized AF-1 sample of known activity). […] After the completion of counting, the code was broken, the data tabulated, and means and standard errors were calculated for the 4 replicate wells of each sample using Cricket Graph (CA Associates, […].). […] Group comparisons were based upon pairwise, 2-tailed Student's t-tests. Several independent experiments were performed for most samples, as noted in the figure legends. […] Cell survival is reported as the number of viable RGCs per high-powered field.

[2] = tested on: goldfish retinal ganglion cells; test: Cell survival in goldfish retinal ganglion cell cultures (viable RGCs per field)
Procedure: Goldfish (Comet Variety, Mt. Parnell Fisheries, Mt. Parnell Pa.), 6-10 cm in length, were dark-adapted and their retinas dissected. Retinas were incubated with papain (20 μg/ml), activated with cysteine (2.8 mM) for 30 minutes at room temperature, then dissociated by gentle trituration. […] Low density cultures were achieved by plating c. 5×10^3 cells/well into poly L-lysine coated, 24-well culture dishes (Costar, Cambridge, Mass.). […] In brief, retinas from postnatal day 8 Sparague-Dawley rats were dissociated using papain activated with cysteine. Macrophages were removed by incubation with an anti-rat macrophage antibody (Accurate) followed by immunopanning with an anti-rabbit 1gG antibody. Ganglion cells were isolated by immunopanning with an anti-Thy-1 antibody, then dislodged with trypsin for use in low-density cultures. Rat retinal ganglion cells were maintained at 37° C. in a CO2 incubator using the same medium described above except for the presence of 30 mM bicarbonate.
In a typical experiment, samples were plated in quadruplicate in randomized positions of a 24-well plate and the code was concealed to ensure that growth was evaluated in a blinded fashion. Each experiment contained 4 wells of a negative control (media plus supplements only) and 4 wells of a positive control (a standardized AF-1 sample of known activity). Growth and survival were assessed after 6 days for all ganglion cells in 25 consecutive fields of each well using phase contrast microscopy at 400× magnification (c. 150 ganglion cells counted per well). […] After the completion of counting, the code was broken, the data tabulated, and means and standard errors were calculated for the 4 replicate wells of each sample using Cricket Graph (CA Associates, Islandia, N.Y.). Data were normalized by subtracting the growth in the negative controls (usually 4-5%) and dividing by the net growth in the positive controls. […] Group comparisons were based upon pairwise, 2-tailed Student's t-tests. Several independent experiments were performed for most samples, as noted in the figure legends. In some cases, cell viability was assessed with the dye 5,6-carboxyfluorescein diacetate. Cell survival is reported as the number of viable RGCs per high-powered field.

[3] = tested on: GAP-43; test: GAP-43 immunohistochemistry in goldfish retinal ganglion cells; conditions: for GAP-43 levels relative to L-15 treated controls: immunostaining
Procedure: One hallmark of optic nerve regeneration in vivo is the enhanced expression of the membrane phosphoprotein GAP-43. To investigate whether this upregulation is induced by purines, immunohistochemistry was carried out using a polyclonal rabbit antiserum against recombinant […] GAP-43. Recombinant zebrafish GAP-43 was made by transforming E. coli with a cDNA isolated by Dr. Eva Reinhard, University of Basel, Switzerland (see Reinhard et al., Development, 120: 1757-1775, 1994, the contents of which are incorporated herein by reference) subcloned into the prokaryotic expression vector pTrcHisB (Invitrogen). The protein produced was purified by Ni^2+-NTA-affinity chromatography and used to immunize rabbits. […] Inosine produced a 5.5-fold increase in the number of intensely stained cells over L-15, whereas AF-1 produced a 8-fold increase. In all 3 cases, the intensity of GAP-43 immunostaining correlated strongly with axonal length.

[4] = tested on: rat retinal ganglion cells; test: Axonal outgrowth from purified rat retinal ganglion cells; conditions: rat RGCs
Procedure: Goldfish (Comet Variety, Mt. Parnell Fisheries, Mt. Parnell Pa.), 6-10 cm in length, were dark-adapted and their retinas dissected. Retinas were incubated with papain (20 μg/ml), activated with cysteine (2.8 mM) for 30 minutes at room temperature, then dissociated by gentle trituration. Repeated cycles of trituration and sedimentation yielded cultures nearly homogeneous in ganglion cells, which are readily identified by their oval shape, phase-bright appearance, size (diameter 15 μm), and extension of only 1 or 2 neurites of uniform caliber; these criteria have been verified by retrograde labeling (see Schwartz & Agranoff, Brain Res. 206: 331-343, 1981 and Schwalb et al., J. Neuroscience 15: 5514-5625, 1995, the contents of which are incorporated herein by reference). Low density cultures were achieved by plating c. 5×10^3 cells/well into poly L-lysine coated, 24-well culture dishes (Costar, Cambridge, Mass.). Cells were maintained at 21° C. in serum free, defined media containing insulin, selenium, transferrin, bovine serum albumin, catalase, superoxide dismutase, hormones, and vitamins in Eagle's L-15 media as described in Schwalb et al., 1995, the contents of which are incorporated herein by reference). Dissociated cultures of purified rat retinal ganglion cells were prepared by immunopanning as described in Barres et al., Neuron, 1: 791-803, 1988, the contents of which are incorporated herein by reference). In brief, retinas from postnatal day 8 Sparague-Dawley rats were dissociated using papain activated with cysteine. Macrophages were removed by incubation with an anti-rat macrophage antibody (Accurate) followed by immunopanning with an anti-rabbit 1gG antibody. Ganglion cells were isolated by immunopanning with an anti-Thy-1 antibody, then dislodged with trypsin for use in low-density cultures. Rat retinal ganglion cells were maintained at 37° C. in a CO2 incubator using the same medium described above except for the presence of 30 mM bicarbonate.
In a typical experiment, samples were plated in quadruplicate in randomized positions of a 24-well plate and the code was concealed to ensure that growth was evaluated in a blinded fashion. Each experiment contained 4 wells of a negative control (media plus supplements only) and 4 wells of a positive control (a standardized AF-1 sample of known activity). Growth and survival were assessed after 6 days for all ganglion cells in 25 consecutive fields of each well using phase contrast microscopy at 400× magnification (c. 150 ganglion cells counted per well). Extension of a process 5 cell diameters in length was the criterion for growth, since it clearly distinguishes stimulated cells from negative controls (see Schwalb et al., 1995). After the completion of counting, the code was broken, the data tabulated, and means and standard errors were calculated for the 4 replicate wells of each sample using Cricket Graph (CA Associates, Islandia, N.Y.). Data were normalized by subtracting the growth in the negative controls (usually 4-5%) and dividing by the net growth in the positive controls. In the most favorable experiments, more than 50% of retinal ganglion cells (RGCs) exposed to AF-1 extended axons 5 cell diameters in length after 6 days. Group comparisons were based upon pairwise, 2-tailed Student's t-tests. Several independent experiments were performed for most samples, as noted in the figure legends. In some cases, cell viability was assessed with the dye 5,6-carboxyfluorescein diacetate. […]

[5] = Carassius auratus, normalized to AF-1 positive control, adenosine 50-100 μM, guanosine 100 μM, inosine above 25 or 50 μM

| Molecule | outgrowth when adenosine hydrolysis is blocked ([1]; 100 μM adenosine in the presence of 10 μM DCF) | EC50 ([1]; Carassius auratus, 144 h) [µM] | Emax [1, 5] [%] | outgrowth at higher concentrations [1] | axonal outgrowth activity [1] | cell survival when ADA is blocked with DCF [2] | dependence of outgrowth on cell density [1] | EC50 [1] [µM] | maximal response relative to the level induced by AF-1 ([1]; normalized to AF-1 positive control, adenosine 50-100 μM, guanosine 100 μM, inosine above 25 or 50 μM) | GAP-43 levels relative to L-15 treated controls [3] | restoration of AF-1-induced growth in the presence of 10 μM 6-TG [1] | restoration of AF-1-induced growth in the presence of 10 μM 6-TG ([1]; listed as Inosine) | combined effect with AF-1 ([1]; inosine and AF-1 at saturating / higher concentrations) | combined effect with AF-1 ([1]; inosine and AF-1 each at EC50 (half-maximal) levels) | increase in the number of intensely stained cells over L-15 ([3]; GAP-43 immunoreactivity score 2 (intense), 150-200 cells) [fold] | restoration of CNTF stimulated growth in the presence of 10 μM 6-TG ([4]; inosine 25 μM) | restoration of CNTF-induced outgrowth in the presence of 10 μM 6-TG ([4]; inosine 50 μM) | increase in the number of cells extending axons 5 cell diameters in length ([4]; inosine at 25 or 50 μM) [%] | effect on outgrowth stimulated by 100 μM adenosine ([1]; exogenous ADA 0.4 U/ml) | effect on cell survival ([2]; exogenous ADA 0.4 U/ml with 100 μM adenosine) |
| --- | --- | --- | --- | --- | --- | --- | --- | --- | --- | --- | --- | --- | --- | --- | --- | --- | --- | --- | --- | --- |
| Nc1ncnc2c1ncn2[C@@H]1O[C@H](CO)[C@@H](O)[C@H]1O [adenosine] | suppress growth; also recorded: failed to stimulate growth, but caused it to decline below baseline levels | 10 to 15 | 60 | outgrowth decreased | stimulated almost as much outgrowth from goldfish retinal ganglion cells as AF-1 | causes adenosine to suppress growth (e, top) and survival |  |  |  |  |  |  |  |  |  |  |  |  |  |  |
| Nc1nc2c(ncn2[C@@H]2O[C@H](CO)[C@@H](O)[C@H]2O)c(=O)[nH]1 [guanosine] |  | 20 to 30 |  | no obvious decrease in activity | stimulated almost as much outgrowth from goldfish retinal ganglion cells as AF-1 |  | growth is not a function of cell density; also recorded: independent of cell density | 25 | same maximal level of activity as adenosine | large increase in GAP-43 levels |  |  |  |  |  |  |  |  |  |  |
| OC[C@H]1O[C@@H](n2cnc3c(O)ncnc32)[C@H](O)[C@@H]1O [inosine] |  | 10 to 15 | ~60 | did not cause growth to decline |  |  | growth is not a function of cell density; also recorded: independent of cell density |  |  | large increase in GAP-43 levels | fully restored the growth induced by AF-1 | restored all of the growth induced by AF-1 | growth saturates at the level stimulated by high AF-1 levels alone; also recorded: growth reached a plateau level | additive effects | 5.5 | fully restored | restored CNTF-induced outgrowth nearly to its original level | 50 |  |  |
| B1 |  |  |  |  |  |  |  |  |  |  |  |  |  |  |  |  |  |  | unaltered; also recorded: did not diminish axon outgrowth | did not diminish axon outgrowth stimulated by 100 μM adenosine or affect cell survival |
